Consider 26 molecules from ChEMBL document CHEMBL3992516, “Synthesis and SAR evaluation of novel thioridazine derivatives active against drug-resistant tuberculosis” (Eur J Med Chem, 2017).

The assay concerns Mycobacterium tuberculosis variant bovis. Nature of the assay: Antimycobacterial activity against Mycobacterium bovis BCG Pasteur ATCC 35734 by microplate alamar blue assay. The assay is classed as functional. Background: Alamar Blue is a resazurin reagent that responds to reducing activity.

Converted amounts (≈) assume the structure as drawn.

What is called MIC is the lowest concentration that inhibits growth of the organism. Higher therefore signals a less susceptible organism. Regarding `CSc1ccc2c(c1)N(CCCN1CCN(C3C4CC5CC(C4)CC3C5)CC1)c1ccccc1S2` (stereo unspecified), the MIC was above 64 µg/mL.
Under `CSc1ccc2c(c1)N(CCC1CCCCN1C(C)C)c1ccccc1S2` (stereo unspecified) stands above 64 µg/mL; under `CSc1ccc2c(c1)N(C(=O)CN1CCN(C)CC1)c1ccccc1S2`, above 64 µg/mL; under `CN1CCCCC1CCn1cnc2ccccc21` (stereo unspecified), above 64 µg/mL.
`NNC(=O)c1ccncc1` [ISONIAZID] came in with an MIC of 0.063 µg/mL (≈ 0.459 µM).
Turning to `Clc1ccc2c(c1)N(CCCN1CCN(c3ccccc3)CC1)c1ccccc1S2`, the minimal inhibitory concentration (MIC) was above 64 µg/mL.
`Clc1ccc2c(c1)N(CCCN1CCSCC1)c1ccccc1S2` displayed an MIC above 64 µg/mL.
Regarding `Clc1ccc2c(c1)N(CCC1CCCCN1)c1ccccc1S2` (stereo unspecified), the MIC was found to be 5.3 µg/mL (≈ 15.4 µM).
The molecule `CSc1ccc2c(c1)N(CCCN1CCN(C34CC5CC(CC(C5)C3)C4)CC1)c1ccccc1S2` gave an MIC of 64 µg/mL (≈ 127 µM).
`CN1CCCCC1CCN1c2ccccc2Sc2ccccc21` (stereo unspecified) registered an MIC of 64 µg/mL (≈ 197 µM).
With `c1ccc2c(c1)c1ccccc1n2CCC1CCCCN1` (stereo unspecified), the MIC was above 64 µg/mL.
Under `CN1CCCCC1CCN1c2ccccc2Sc2ccc(Cl)cc21` (stereo unspecified) stands 8 µg/mL (≈ 22.3 µM); under `c1ccc2c(c1)ncn2CCC1CCCCN1` (stereo unspecified), above 64 µg/mL.
`CN1CCN(CCCN2c3ccccc3Sc3ccccc32)CC1` [PERAZINE] gave an MIC of 64 µg/mL (≈ 189 µM).
The molecule `c1ccc2c(c1)ccn2CCC1CCCCN1` (stereo unspecified) yielded an MIC of 64 µg/mL (≈ 280 µM).
As for `CCCN1CCCCC1CCN1c2ccccc2Sc2ccc(SC)cc21` (stereo unspecified), the lowest concentration to inhibit growth (MIC) was 64 µg/mL (≈ 161 µM).
`CSc1ccc2c(c1)N(CCCN1CCN(c3ccccc3)CC1)c1ccccc1S2` showed an MIC above 64 µg/mL.
`CN1CCCCC1CCn1c2ccccc2c2ccccc21` (stereo unspecified) registered an MIC above 64 µg/mL.
With `CSc1ccc2c(c1)N(CCCN1CCN(C)CC1)c1ccccc1S2`, the MIC was found to be 8 µg/mL (≈ 20.7 µM).
With `CSc1ccc2c(c1)N(CCCN1CCSCC1)c1ccccc1S2`, the MIC was above 64 µg/mL.
With `CSc1ccc2c(c1)N(CCC1CCCCN1C)c1ccccc1S2` (stereo unspecified) [THIORIDAZINE], the MIC is 16 µg/mL (≈ 43.2 µM).
The molecule `CSc1ccc2c(c1)N(CCC1CCCCN1)c1ccccc1S2` (stereo unspecified) registered an MIC of 8 µg/mL (≈ 22.4 µM). Compared with the last molecule, the MIC is about 2-fold lower.
For `CN1CCN(CCCn2ccc3ccccc32)CC1`, the MIC was above 64 µg/mL.
As for `c1ccc(N2CCN(CCCN3c4ccccc4Sc4ccccc43)CC2)cc1`, the MIC was above 64 µg/mL.
With `CSc1ccc2c(c1)N(CCC1CCCCN1Cc1ccccc1)c1ccccc1S2` (stereo unspecified), inhibition of growth (MIC) required 8 µg/mL (≈ 17.9 µM).
The molecule `c1ccc2c(c1)Sc1ccccc1N2CCC1CCCCN1` (stereo unspecified) returned a minimal inhibitory concentration (MIC) above 64 µg/mL.
